In US10131652B2, “Pyrimidinyloxy benzene derivatives as herbicides” (E. I. DU PONT DE NEMOURS AND COMPANY, priority 2014, dated 2018):
Read-outs that look alike come from different tables or passages of the source.

Legend:
Test in all cases: Test D pre-/postemergence plant response
Assay type in all cases: in vivo
[1] = system: johnsongrass (Sorghum halepense); details: Sorghum halepense; for pest or weed control at 31 g/ha: 31 g ai/ha; for pest or weed control at 62 g/ha: 62 g ai/ha; for pest or weed control at 125 g/ha: 125 g ai/ha; for pest or weed control at 250 g/ha: 250 g ai/ha
Description: (§1) Seeds of plant species selected from blackgrass (Alopecurus myosuroides), Italian ryegrass (Lolium multiflorum), winter wheat (Triticum aestivum), galium (catchweed bedstraw, Galium aparine), corn (Zea mays), large (Lg) crabgrass (Digitaria sanguinalis), giant foxtail (Setaria faberii), johnsongrass (Sorghum halepense), lambsquarters (Chenopodium album), morningglory (Ipomoea coccinea), yellow nutsedge (Cyperus esculentus), pigweed (Amaranthus retroflexus), ragweed (common ragweed, Ambrosia elatior), soybean (Glycine max), bamyardgrass (Echinochloa crus-galli), oilseed rape (Brassica napus), waterhemp (common waterhemp, Amaranthus rudis), and velvetleaf (Abutilon theophrasti) were planted into a blend of loam soil and sand and treated preemergence with test chemicals formulated in a non-phytotoxic solvent mixture which included a surfactant. At the same time, plants selected from these crop and weed species and also kochia (Kochia scoparia), wild oat (Avena fatua), and chickweed (common chickweed, Stellaria media) were planted in pots containing Redi-Earth® planting medium (Scotts Company, 14111 Scottslawn Road, Marysville, Ohio 43041) comprising spaghnum peat moss, vermiculite, wetting agent and starter nutrients and treated with postemergence applications of test chemicals formulated in the same manner. Plants ranged in height from 2 to 18 cm (1- to 4-leaf stage) for postemergence treatments. Treated plants and controls were maintained in a greenhouse for 13 to 15 days, after which time all species were compared to controls and visually evaluated. Plant response ratings, summarized in Table D, are based on a scale of 0 to 100 where 0 is no effect and 100 is complete control. A dash (-) response means no test result.

[2] = system: lambsquarters (Chenopodium album); details: Chenopodium album; for pest or weed control at 31 g/ha: 31 g ai/ha; for pest or weed control at 62 g/ha: 62 g ai/ha; for pest or weed control at 125 g/ha: 125 g ai/ha; for pest or weed control at 250 g/ha: 250 g ai/ha
Description: as §1

[3] = system: large (Lg) crabgrass (Digitaria sanguinalis); details: Digitaria sanguinalis; for pest or weed control at 31 g/ha: 31 g ai/ha; for pest or weed control at 62 g/ha: 62 g ai/ha; for pest or weed control at 125 g/ha: 125 g ai/ha; for pest or weed control at 250 g/ha: 250 g ai/ha
Description: as §1

[4] = system: velvetleaf (Abutilon theophrasti); details: Abutilon theophrasti; for pest or weed control at 31 g/ha: 31 g ai/ha; for pest or weed control at 62 g/ha: 62 g ai/ha; for pest or weed control at 125 g/ha: 125 g ai/ha; for pest or weed control at 250 g/ha: 250 g ai/ha
Description: as §1

[5] = system: winter wheat (Triticum aestivum); details: Triticum aestivum; for plant injury at 31 g/ha: 31 g ai/ha; for plant injury at 62 g/ha: 62 g ai/ha; for plant injury at 125 g/ha: 125 g ai/ha; for plant injury at 250 g/ha: 250 g ai/ha
Description: as §1

[6] = post-emergence, Postemergence, scale 0 to 100, 0 no effect, 100 complete control, read-out: Plant response rating, Johnsongrass
[7] = pre-emergence, Preemergence, read-out: Plant response rating (scale 0 to 100), Johnsongrass
[8] = pre-emergence, Preemergence, scale 0 to 100 (0 no effect, 100 complete control), read-out: Plant response rating, Johnsongrass
[9] = post-emergence, Postemergence, scale 0 to 100, 0 no effect, 100 complete control, read-out: Plant response rating, Lambsquarters
[10] = pre-emergence, Preemergence, read-out: Plant response rating (scale 0 to 100), Lambsquarters
[11] = pre-emergence, Preemergence, scale 0 to 100 (0 no effect, 100 complete control), read-out: Plant response rating, Lambsquarters
[12] = post-emergence, Postemergence, scale 0 to 100, 0 no effect, 100 complete control, read-out: Plant response rating, Crabgrass, Large
[13] = pre-emergence, Preemergence, read-out: Plant response rating (scale 0 to 100), Crabgrass, Large
[14] = pre-emergence, Preemergence, scale 0 to 100 (0 no effect, 100 complete control), read-out: Plant response rating, Crabgrass, Large
[15] = post-emergence, Postemergence, scale 0 to 100, 0 no effect, 100 complete control, read-out: Plant response rating, Velvetleaf
[16] = pre-emergence, Preemergence, read-out: Plant response rating (scale 0 to 100), Velvetleaf
[17] = pre-emergence, Preemergence, scale 0 to 100 (0 no effect, 100 complete control), read-out: Plant response rating, Velvetleaf
[18] = post-emergence, Postemergence, scale 0 to 100, 0 no effect, 100 complete control, read-out: Plant response rating, Wheat
[19] = pre-emergence, Preemergence, read-out: Plant response rating (scale 0 to 100), Wheat
[20] = pre-emergence, Preemergence, scale 0 to 100 (0 no effect, 100 complete control), read-out: Plant response rating, Wheat

FC(F)c1cc(-c2ccccc2Oc2ncc(Br)cn2)no1 [Compound 62, 5-bromo-2-[2-[5-(difluoromethyl)-3-isoxazolyl]phenoxy]pyrimidine]
pest or weed control at 31 g/ha ([1]; post-emergence, Postemergence, scale 0 to 100 (0 no effect, 100 complete control), read-out: Johnsongrass plant response rating): 25%
pest or weed control at 62 g/ha [1, 6]: 25%
pest or weed control at 125 g/ha [1, 6]: 75%
pest or weed control at 250 g/ha [1, 6]: 85%
pest or weed control at 125 g/ha [1, 7]: 90%
pest or weed control at 250 g/ha [1, 7]: 98%
pest or weed control at 31 g/ha [1, 8]: 30%
pest or weed control at 62 g/ha [1, 8]: 75%
pest or weed control at 31 g/ha ([2]; post-emergence, Postemergence, scale 0 to 100 (0 no effect, 100 complete control), read-out: Lambsquarters plant response rating): 98%
pest or weed control at 62 g/ha [2, 9]: 98%
pest or weed control at 125 g/ha [2, 9]: 100%
pest or weed control at 250 g/ha [2, 9]: 100%
pest or weed control at 125 g/ha [2, 10]: 98%
pest or weed control at 250 g/ha [2, 10]: 100%
pest or weed control at 31 g/ha [2, 11]: 100%
pest or weed control at 62 g/ha [2, 11]: 95%
pest or weed control at 31 g/ha ([3]; post-emergence, Postemergence, scale 0 to 100 (0 no effect, 100 complete control), read-out: Crabgrass, Large plant response rating): 55%
pest or weed control at 62 g/ha [3, 12]: 35%
pest or weed control at 125 g/ha [3, 12]: 50%
pest or weed control at 250 g/ha [3, 12]: 65%
pest or weed control at 125 g/ha [3, 13]: 100%
pest or weed control at 250 g/ha [3, 13]: 100%
pest or weed control at 31 g/ha [3, 14]: 95%
pest or weed control at 62 g/ha [3, 14]: 100%
pest or weed control at 31 g/ha ([4]; post-emergence, Postemergence, scale 0 to 100 (0 no effect, 100 complete control), read-out: Velvetleaf plant response rating): 60%
pest or weed control at 62 g/ha [4, 15]: 70%
pest or weed control at 125 g/ha [4, 15]: 75%
pest or weed control at 250 g/ha [4, 15]: 85%
pest or weed control at 125 g/ha [4, 16]: 100%
pest or weed control at 250 g/ha [4, 16]: 100%
pest or weed control at 31 g/ha [4, 17]: 90%
pest or weed control at 62 g/ha [4, 17]: 100%
plant injury at 31 g/ha ([5]; post-emergence, Postemergence, scale 0 to 100 (0 no effect, 100 complete control), read-out: Wheat plant response rating): 30%
plant injury at 62 g/ha [5, 18]: 20%
plant injury at 125 g/ha [5, 18]: 10%
plant injury at 250 g/ha [5, 18]: 40%
plant injury at 125 g/ha [5, 19]: 40%
plant injury at 250 g/ha [5, 19]: 50%
plant injury at 31 g/ha [5, 20]: 0%
plant injury at 62 g/ha [5, 20]: 10%
